Laboratory results as given in patent publication US9150489B2, “1-(2-fluorobiphenyl-4-yl)-alkyl carboxylic acid derivatives for the therapy of transthyretin amyloidosis” (CHIESI FARMACEUTICI S.p.A., priority 2010, dated 2015).

How the values were obtained:
[1] = target: T1, wild-type human transthyretin (TTR) (Homo sapiens, UniProt P02766); conditions: cited from earlier work
T1 construct: made in house; host or cells: E. coli

[2] = target: T1, wild-type human transthyretin (TTR); assay: Competitive binding to wild-type human TTR by fluorometric techniques; conditions: 20° C.; for emission peak of TTR-bound ANS in the presence of the compound / emission peak of TTR-bound tafamidis in the presence of the compound / emission peak of TTR-bound trans-resveratrol in the presence of the compound: 10 μM compound; for emission peak of TTR-bound ANS in the presence of the compound: 10 μM ANS, excitation 360 nm; for emission peak of TTR-bound ANS in the presence of the compound / emission peak of TTR-bound trans-resveratrol in the presence of the compound: 5 μM TTR; for emission peak of TTR-bound tafamidis in the presence of the compound: 10 μM tafamidis, 10 μM TTR; for emission peak of TTR-bound tafamidis in the presence of the compound / emission peak of TTR-bound trans-resveratrol in the presence of the compound: excitation 320 nm; for emission peak of TTR-bound trans-resveratrol in the presence of the compound: 10 μM trans-resveratrol; for relative binding affinity to TTR (competitive binding assays taken together): 50 mM Na phosphate buffer, pH 7.2, 150 mM NaCl
human wild-type TTR = target: T2, human wild-type TTR (Homo sapiens, UniProt P02766); assay: In vitro fibrillogenesis by wild-type TTR at acidic pH (turbidity at 400 nm); format: biochemical; conditions: 3.6 μM TTR, 10.8 μM inhibitor, pH 4.4, 37° C., average of two measurements; for inhibition at 10.8 µM: read-out: inhibitory effect on wild-type TTR fibrillogenesis
T2 construct: made in house; host or cells: E. coli
Description: (§1) The aim of this study was to evaluate the inhibitory effect of the same representative compounds of the inventions tested in Example 1 in vitro fibrillogenesis by human wild-type TTR and two major amyloidogenic variants (V30M and V 122I) at moderately acidic pH, in comparison to reference compounds. To highlight the inhibitory effect of CHF 5074 and CHF4795 versus diflunisal and tafamidis on in vitro fibrillogenesis by wild-type, V30M and V122I TTR at moderately acid pH, we followed the kinetics of fibril formation by these proteins, by monitoring the increase in turbidity at 400 nm as reported in Johnson et al., 2008, J. Med. Chem., 51:260 (which is incorporated herein by reference), upon incubation with TTR. The final concentration of TTR was of 3.6 μM, which is close to its physiological plasma concentration, with fibrillogenesis inhibitors at a final concentration of 10.8 μM. According to the procedure adopted for other inhibitors of fibrillogenesis (Johnson et al., 2008, J. Med. Chem., 51:260), TTR was incubated with each inhibitor at neutral pH (10 mM Na phosphate buffer, pH 7.2, 100 mM KCl, 1 mM EDTA) for 30 minutes at ambient temperature, prior to the incubation of the protein at acidic pH (200 mM Na Acetate buffer, pH 4.4, 100 mM KCl, 1 mM EDTA) at 37° C. in order to promote fibrillogenesis. Inhibitory effect data represent the average of two independent measurements for each compound.

V30M TTR = target: T3, V30M TTR (Homo sapiens, UniProt P02766, V50M); assay: In vitro fibrillogenesis by V30M TTR at acidic pH (turbidity at 400 nm); format: biochemical; conditions: 3.6 μM TTR, 10.8 μM inhibitor, pH 4.4, 37° C., average of two measurements
T3 construct: made in house; host or cells: E. coli
Description: as §1

V 122I TTR = target: T4, V 122I TTR (Homo sapiens, UniProt P02766, V142I); assay: In vitro fibrillogenesis by V122I TTR at acidic pH (turbidity at 400 nm); format: biochemical; conditions: 3.6 μM TTR, 10.8 μM inhibitor, pH 4.4, 37° C., average of two measurements; for inhibition at 10.8 µM: read-out: inhibitory effect on V 122I TTR fibrillogenesis
T4 construct: made in house; host or cells: E. coli
Description: as §1

Structure (SMILES)	inhibition at 10.8 µM (human wild-type TTR) [%]	inhibition at 10.8 µM (V 122I TTR) [%]	binding affinity for TTR (known property of the fluorescent probes) [1]	emission peak of TTR-bound ANS in the presence of the compound ([2]; pH 7.2)	emission peak of TTR-bound tafamidis in the presence of the compound ([2]; pH 7.2)	emission peak of TTR-bound trans-resveratrol in the presence of the compound ([2]; pH 7.2)	relative binding affinity to TTR (competitive binding assays taken together) [2]	inhibitory effect on V30M TTR fibrillogenesis (V30M TTR)	also measured
O=S(=O)(O)c1cccc2cccc(Nc3ccccc3)c12 [ANS, 8-anilino-1-naphthalene sulfonate]	–	–	relatively low binding affinity	–	–	–	–	–	–
CC(C)(C(=O)O)c1ccc(-c2cc(Cl)cc(Cl)c2)c(F)c1 [CHF 4795, 2-methyl-(3′,5′-dichloro-2-fluoro-biphenyl-4-yl) propionic acid]	–	–	–	nearly completely abolished	nearly completely shifted to that of unbound tafamidis	nearly completely abolished	higher binding affinity to TTR as compared to trans-resveratrol	inhibitory effects similar to those observed with wild-type TTR	inhibitory effect on wild-type TTR fibrillogenesis (human wild-type TTR): about 75%; inhibitory effect on V 122I TTR fibrillogenesis (V 122I TTR): about 92%
O=C(O)c1ccc2nc(-c3cc(Cl)cc(Cl)c3)oc2c1 [tafamidis, 2-(3,5-dichlorophenyl)-1,3-benzoxazole-6-carboxylic acid, reference compound]	~75	~92	–	–	–	–	–	inhibitory effects similar to those observed with wild-type TTR	–
Oc1ccc(/C=C/c2cc(O)cc(O)c2)cc1 [trans-resveratrol, reference compound]	–	–	high binding affinity, greater than that of thyroxine	–	–	–	–	–	fluorescence emission of TTR-bound diflunisal exposed to equimolar compound ([2]; 10 μM TTR-bound diflunisal, equimolar compound, excitation 340 nm, pH 7.2): a spectrum similar to that of TTR-bound trans-resveratrol rather than to that of TTR-bound diflunisal was obtained

The next lines start with results.

inhibition at 10.8 µM (human wild-type TTR) [%]	inhibition at 10.8 µM (V 122I TTR) [%]	Structure (SMILES)	binding affinity for TTR (known property of the fluorescent probes) [1]	emission peak of TTR-bound ANS in the presence of the compound ([2]; pH 7.2)	emission peak of TTR-bound tafamidis in the presence of the compound ([2]; pH 7.2)	emission peak of TTR-bound trans-resveratrol in the presence of the compound ([2]; pH 7.2)	relative binding affinity to TTR (competitive binding assays taken together) [2]	inhibitory effect on V30M TTR fibrillogenesis (V30M TTR)	also measured
~75	~92	O=C(O)C1(c2ccc(-c3ccc(Cl)c(Cl)c3)c(F)c2)CC1 [CHF 5074, 1-(3′,4′-dichloro-2-fluorobiphenyl-4-yl)cyclopropanecarboxylic acid]	–	nearly completely abolished	nearly completely shifted to that of unbound tafamidis	nearly completely abolished	higher binding affinity to TTR as compared to trans-resveratrol	inhibitory effects similar to those observed with wild-type TTR	–
~75	~92	O=C(O)c1cc(-c2ccc(F)cc2F)ccc1O [diflunisal, reference compound]	–	–	–	–	–	inhibitory effects similar to those observed with wild-type TTR	–
